“And” between values parts separate entries of the source, which are not always exact repeats. Identical values can stand only once. Inconclusive results and toxic doses are left out. Rule as the data show it: active = T/C of 150% or more; inactive = T/C below 125%.
Tested on: L1210 leukemia ip in BDF1 mice, survival T/C
Assay: NCI In Vivo Anticancer Drug Screen. Data for tumor model L1210 Leukemia (intraperitoneal) in B6D2F1 (BDF1) mice
Settings: endpoint: mean survival time, higher = longer survival
Procedure, shortened: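 Transplanted-tumor mice were given test agent; controls received vehicle only. Survival readings from the two groups were divided (treated over control).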

[1] = dose: 100.0 mg/kg/injection, schedule: Q01DX009 (ip), vehicle: saline with Tween-80
[2] = dose: 200.0 mg/kg/injection, schedule: Q01DX009 (ip), vehicle: saline with Tween-80
[3] = dose: 100.0 mg/kg/injection, schedule: Q04DX003 (ip), vehicle: saline with Tween-80
[4] = dose: 200.0 mg/kg/injection, schedule: Q04DX003 (ip), vehicle: saline with Tween-80
[5] = dose: 400.0 mg/kg/injection, schedule: Q04DX003 (ip), vehicle: saline with Tween-80
[6] = dose: 400.0 mg/kg/injection, schedule: Q01DX009 (ip), vehicle: saline with Tween-80
[7] = dose: 100.0 mg/kg/injection, schedule: Q01DX001 (ip), vehicle: saline
[8] = dose: 100.0 mg/kg/injection, schedule: Q01DX009 (ip), vehicle: saline
[9] = dose: 100.0 mg/kg/injection, schedule: Q04DX003 (ip), vehicle: saline
[10] = dose: 200.0 mg/kg/injection, schedule: Q01DX001 (ip), vehicle: saline
[11] = dose: 200.0 mg/kg/injection, schedule: Q01DX009 (ip), vehicle: saline
[12] = dose: 200.0 mg/kg/injection, schedule: Q04DX003 (ip), vehicle: saline
[13] = dose: 400.0 mg/kg/injection, schedule: Q01DX001 (ip), vehicle: saline
[14] = dose: 400.0 mg/kg/injection, schedule: Q04DX003 (ip), vehicle: saline
[15] = dose: 100.0 mg/kg/injection, schedule: Q04DX003 (ip), vehicle: Klucel (hydroxypropylcellulose) (HPC)
[16] = dose: 200.0 mg/kg/injection, schedule: Q04DX003 (ip), vehicle: Klucel (hydroxypropylcellulose) (HPC)
[17] = dose: 400.0 mg/kg/injection, schedule: Q04DX003 (ip), vehicle: Klucel (hydroxypropylcellulose) (HPC)
[18] = dose: 100.0 mg/kg/injection, schedule: Q04DX002 (ip), vehicle: Klucel (hydroxypropylcellulose) (HPC)
[19] = dose: 200.0 mg/kg/injection, schedule: Q01DX009 (ip), vehicle: Klucel (hydroxypropylcellulose) (HPC)
[20] = dose: 200.0 mg/kg/injection, schedule: Q04DX002 (ip), vehicle: Klucel (hydroxypropylcellulose) (HPC)
[21] = dose: 400.0 mg/kg/injection, schedule: Q04DX002 (ip), vehicle: Klucel (hydroxypropylcellulose) (HPC)

Measured: T/C

C[N+]1(Cc2ccccc2)CCC2(C(N)=O)CC1Cc1ccccc12 (configuration not stated)
inactive: dose: 75.0 mg/kg/injection, schedule: Q01DX001 (ip), vehicle: other 105 % of control | dose: 150.0 mg/kg/injection, schedule: Q01DX001 (ip), vehicle: other 100 % of control | dose: 300.0 mg/kg/injection, schedule: Q01DX001 (ip), vehicle: other 93 % of control

C/C(=N\NC(N)=O)C1=C(O)C(C(C)C)NC1=O (configuration not stated)
inactive: dose: 50.0 mg/kg/injection, schedule: Q01DX001 (ip), vehicle: carboxymethylcellulose (CMC) 101 % of control | dose: 100.0 mg/kg/injection, schedule: Q01DX001 (ip), vehicle: carboxymethylcellulose (CMC) 106 % of control | dose: 200.0 mg/kg/injection, schedule: Q01DX001 (ip), vehicle: carboxymethylcellulose (CMC) 103 % of control | dose: 400.0 mg/kg/injection, schedule: Q01DX001 (ip), vehicle: carboxymethylcellulose (CMC) 109 % of control

CN(C)C1C2C(CS2(=O)=O)C1(C)C (configuration not stated)
inactive: dose: 75.0 mg/kg/injection, schedule: Q01DX001 (ip), vehicle: carboxymethylcellulose (CMC) 100 % of control | dose: 150.0 mg/kg/injection, schedule: Q01DX001 (ip), vehicle: carboxymethylcellulose (CMC) 100 % of control

O=[N+]([O-])c1ccc(Cl)c2ccncc12
inactive: dose: 50.0 mg/kg/injection, schedule: Q01DX009 (ip), vehicle: saline with Tween-80 102 % of control | [1] 105 % of control | [2] 105 % of control

S=c1cc[nH]c2n[nH]nc12
inactive: dose: 100.0 mg/kg/injection, schedule: Q01DX001 (ip), vehicle: saline with Tween-80 101 % of control | [3] 104 % of control | dose: 200.0 mg/kg/injection, schedule: Q01DX001 (ip), vehicle: saline with Tween-80 101 % of control | [4] 101 % of control | dose: 400.0 mg/kg/injection, schedule: Q01DX001 (ip), vehicle: saline with Tween-80 103 % of control | [5] 98 % of control

COC(=O)N1c2ccccc2C=C(NC(C)=O)C1C#N (configuration not stated)
inactive: [1] 117 % of control | [3] 103 % of control | [2] 98 % of control | [4] 95 % of control | [6] 98 % of control | [5] 94 % of control

COC(=O)C1=C2C(C(=O)OC)C(O)=C(C(=O)OC)C2C(C(=O)OC)C1=O (configuration not stated)
inactive: [7] 97 % of control | [8] 100 % of control | [9] 107 % of control | [10] 105 % of control | [11] 97 % of control | [12] 104 % of control | [13] 103 % of control | dose: 400.0 mg/kg/injection, schedule: Q01DX009 (ip), vehicle: saline 95 % of control | [14] 104 % of control

CN(C(=S)c1ccc(Cl)cc1)c1ccccc1
inactive: dose: 100.0 mg/kg/injection, schedule: Q01DX001 (ip), vehicle: Klucel (hydroxypropylcellulose) (HPC) 103 % of control | [15] 92 % of control | dose: 200.0 mg/kg/injection, schedule: Q01DX001 (ip), vehicle: Klucel (hydroxypropylcellulose) (HPC) 98 % of control | [16] 102 % of control | dose: 400.0 mg/kg/injection, schedule: Q01DX001 (ip), vehicle: Klucel (hydroxypropylcellulose) (HPC) 103 % of control | [17] 97 % of control

Cc1ncc(CO)c(/C=N\OCc2cc(Cl)sc2Cl)c1O
inactive: [15] 93 % of control | [16] 93 % of control | [17] 104 % of control

CCNC(=O)OCCc1c2ccccc2[n+]([O-])c2ccccc12
inactive: [3] 96 % of control | [4] 102 % of control | [5] 90 % of control

NC(CC(=O)O)C(=O)OCc1ccccc1 (configuration not stated)
inactive: dose: 100.0 mg/kg/injection, schedule: Q01DX009 (ip), vehicle: Klucel (hydroxypropylcellulose) (HPC) 95 % of control | [18] 92 % of control | [19] 95 % of control | [20] 103 % of control | [21] 95 % of control

O=C(O)/C=C/c1ccc(/C=C/C(=O)O)cc1
inactive: [1] 95 % of control | [3] 98 % of control | [2] 88 % of control | [4] 96 % of control | [6] 103 % of control | [5] 95 % of control

CSc1ncnc2c1ncn2C1OC(CCC(N)=O)C(O)C1O (configuration not stated)
inactive: dose: 50.0 mg/kg/injection, schedule: Q04DX002 (ip), vehicle: Klucel (hydroxypropylcellulose) (HPC) 98 % of control | [18] 101 % of control and 103 % of control | [20] 95 % of control | [21] 95 % of control

CC(C)CCCC(C)C1CCC2C3CC(O)C4=CCCCC4(C)C3CCC12C (configuration not stated)
inactive: dose: 9.38 mg/kg/injection, schedule: Q01DX001 (ip), vehicle: other 97 % of control | dose: 18.75 mg/kg/injection, schedule: Q01DX001 (ip), vehicle: other 94 % of control | dose: 37.5 mg/kg/injection, schedule: Q01DX001 (ip), vehicle: other 94 % of control

CC1(C)N=C(N)N=C(N)N1c1ccc(CCNS(=O)(=O)c2cccc(S(=O)(=O)F)c2)cc1
inactive: [7] 96 % of control | [10] 94 % of control | [13] 96 % of control

N#CC(C#N)=Cc1cc2c3c(c1)CCCN3CCC2
inactive: dose: 50.0 mg/kg/injection, schedule: Q04DX003 (ip), vehicle: saline with Tween-80 103 % of control | [3] 109 % of control | [4] 92 % of control | [5] 98 % of control

C=CCOc1ncnc2nc[nH]c12
inactive: [3] 102 % of control | [4] 96 % of control | [5] 101 % of control

COc1ccc(OC)c(/C=C/c2ccc(NC(=O)Nc3ccccc3Cl)cc2)c1
inactive: dose: 12.5 mg/kg/injection, schedule: Q01DX009 (ip), vehicle: Klucel (hydroxypropylcellulose) (HPC) 93 % of control | dose: 25.0 mg/kg/injection, schedule: Q01DX009 (ip), vehicle: Klucel (hydroxypropylcellulose) (HPC) 89 % of control | dose: 50.0 mg/kg/injection, schedule: Q01DX009 (ip), vehicle: Klucel (hydroxypropylcellulose) (HPC) 91 % of control | [18] 88 % of control | [19] 93 % of control and 86 % of control | [20] 88 % of control | dose: 300.0 mg/kg/injection, schedule: Q01DX009 (ip), vehicle: Klucel (hydroxypropylcellulose) (HPC) 106 % of control and 89 % of control

Cc1cc2cc3c(=O)[nH]c(=O)nc-3n(CC(O)C(O)C(O)COP(=O)(O)O)c2cc1C (configuration not stated)
inactive: dose: 25.0 mg/kg/injection, schedule: Q01DX009 (ip), vehicle: saline 96 % of control | dose: 50.0 mg/kg/injection, schedule: Q01DX009 (ip), vehicle: saline 100 % of control | [8] 94 % of control and 89 % of control | [9] 110 % of control | [11] 86 % of control | [12] 100 % of control | [14] 98 % of control
